# Test results from patent publication US10668057B2, “Compositions and methods for inducing conformational changes in cereblon and other E3 ubiquitin ligases” (Celgene Corporation, priority 2014, dated 2020).
# Legend:
# [1] = tested on: DF15R cells; assay: Cell proliferation assay of DF15R cells re-expressing CRBN wild type or mutants; type: cell-based
# [2] = target: T1, CRBN^WT (Homo sapiens, UniProt Q96SW2); assay: Thalidomide analog-coupled affinity bead assay, DF15R CRBN^WT cell extracts; type: binding; conditions: preincubation of cell extracts with free compound
# T1 construct: re-express full length wild type (CRBN^WT), W386A (CRBN^W386A) or W400A (CRBN^W400A) mutant versions of CRBN; FLAG; expressed in transfected cells; host or cells: DF15R (CRBN-deficient myeloma line), lentiviral transduction, puromycin selection; cell extract
# Method: (§1) DF15, DF15R or DF15R derived cell line extracts were prepared in NP 40 lysis buffer (0.5% NP40, 50 mM Tris HCl (pH 8.0), 150 mM NaCl, 0.5 mM DTT, 0.25 mM PMSF, 1× protease inhibitor mix (Roche, Indianapolis, Ind.) at approximately 2×10^8 cells per ml […]. Cell debris and nucleic acids were cleared by centrifugation (14,000 rpm 30 min 4° C.). In competition experiments 0.5 ml (3-5 mg protein) aliquots of the resulting extracts were preincubated (15 min room temp.) with 5 μl DMSO (control) or 5 μl compound at varying concentrations in DMSO. Thalidomide analog-coupled beads (0.3-0.5 mg) were added to protein extracts and samples rotated (2 hours, 4° C.). Beads were washed three times with 0.5 ml NP40 buffer, and then bound proteins were eluted with SDS-PAGE sample buffer.
# [3] = tested on: IL-2; assay: IL-2 induction in mouse splenocytes; type: cell-based
# Text: FIGS. 26A-26B show IL2 costimulation by pomalidomide. FIG. 26A: Co-stimulation of IL2 release by pomalidomide in human PBMCs treated with anti-CD3. Data are shown as mean±s.d. FIG. 26B: Costimulation of IL2 release by anti-CD28 (squares) or pomalidomide (circles) in mouse PBMC treated with anti-CD3. Data are shown as mean±s.d.
# [4] = tested on: H929 and U266; assay: Cell viability in CRBN inducible shRNA knockdown myeloma cells; type: cell-based; conditions: CRBN inducible knockdown vs shControl, 5 day treatment
# Text: FIG. 25A: An inducible shRNA construct targeting CRBN or a control construct was transduced into the multiple myeloma cell lines H929 and U266. Inducible shRNA expression (marked by turbo-RFP) was monitored by flow cytometry over a period of 1 to 9 days as indicated in the histograms (Top row). […] FIG. 25B: CRBN protein expression was quantified by Western blotting. […] Data are shown as mean of three independent experiments±s.d.
# Inducible shRNA constructs targeting CRBN or a control construct (Open Biosystems) were transduced using spinoculation methodology into the multiple myeloma cell lines H929 and U266. Stably transduced cells were selected with puromycin. Inducible shRNA expression (marked by RFP) was monitored by fluorescence microscopy and flow cytometry using 1 μg/mL doxycycline. CRBN protein expression was quantified by Western blotting. Cell proliferation and viability were assessed by 7AAD/flow cytometry assays. 6.9.2.5 Immunoblot and Immunohistochemistry
# [5] = target: T2, CRBN^E377V (Homo sapiens, UniProt Q96SW2, E377V); assay: Thalidomide analog-coupled affinity bead assay, DF15R CRBN^E377V cell extracts; type: binding; conditions: preincubation of cell extracts with free compound, comparable to CRBN^WT
# T2 construct: Cell lines re-expressing RFP or full length CRBN wild type or E377V mutant; expressed in transfected cells; host or cells: DF15R (CRBN-deficient myeloma line), lentiviral system; cell extract
# Method: as §1
# To probe the function of the residues proximal to the bound IMiD® drug, we performed mutagenesis of residue E377 to valine in the human CRBN sequence and re-expressed the protein using a lentiviral system in DF15R cells. Cell extracts from this line were used to assay the ability of CRBN^E377V to bind IMiD® compound.
# [6] = tested on: TMD8 (ABC) or Karpas 422 (GCB) cells; assay: 3H-thymidine incorporation proliferation assay, co-treatment with lenalidomide; type: cell-based; conditions: for anti-proliferative effects on co-treatment with lenalidomide: co-treatment with 10 μM lenalidomide
# [7] = mice and rats; cited from earlier work
# [8] = target: T3, CRBN (Homo sapiens, UniProt Q96SW2); conditions: in vitro; cited from earlier work
# [9] = tested on: MDA-MB-231; assay: Growth inhibition and pro-apoptotic activity in breast cancer cells treated with CRBN siRNA; type: cell-based; conditions: CRBN siRNA vs negative control
# Method: Breast cancer cells (MDA-MB-231) were treated with CRBN siRNA or a negative control. CC-885 was added at a concentration between 0 to 100 μM, and CRBN levels were assessed at 48 hours post treatment.
# [10] = target: T3, CRBN; assay: Thalidomide analog affinity bead competition, U266 cell extracts; type: binding; design: extracts prepared from U266 multiple myeloma cells; endogenous in cells; host or cells: U266 multiple myeloma cells (cell extract); conditions: U266 MM cell extracts, competition with thalidomide analog affinity beads
# Method: Immunoblot analysis of extracts prepared from U266 multiple myeloma cells and pre-incubated with vehicle DMSO (D), Pomalidomide (Pom) or CC-885 at the indicated concentrations, and bound to thalidomide analog affinity beads, washed and eluted with SDS buffer as previously described (Ito et al, 2010; Lopez-Girona et al, 2012). Samples were subjected to SDS-PAGE and immunoblot analysis using anti-CRBN 65-76 (1:10,000 dilution; Red signal) and anti-DDB1 (Cell Signaling) (1:2,000 dilution; Green signal). A LI-COR Odissey system was used to quantify CRBN band density and relative amounts of CRBN were determined by averaging at least three DMSO controls and expressing CRBN in each competition sample as percent inhibition of CRBN protein relative to the averaged controls as 100% binding. […] Cell proliferation assay of DF15 (sensitive), DF15R (resistant; CRBNnull) cells treated with a dose response of CC-885. Assays were done in triplicate and error bars represent s.d. Data for each cell line was normalized to treatment with vehicle (DMSO). […] Cell proliferation assay of DF15 (sensitive), DF15R (resistant; CRBNnull), DF15R-hCRBNWT (human CRBN), DF15R-RFP cells treated with a dose response of CC-885. […] Assays were done in triplicate and error bars represent s.d. Data for each cell line was normalized to treatment with vehicle (DMSO). […]
# [11] = tested on: panel of tumor cell lines; assay: Potency across a panel of tumor cell lines; type: cell-based
# Method: The potency of CC-885 was assessed across a panel of tumor cell lines, including B-lymphoma, breast, CNS, colon, kidney, leukemia, lung, melanoma, multiple myeloma, ovary and prostate.
# [12] = tested on: DF15 (sensitive), DF15R (resistant; CRBNnull) cells; assay: Cell proliferation assay of DF15, DF15R and DF15R-derived cells with CC-885; type: cell-based
# [13] = tested on: H929; assay: Apoptosis in multiple myeloma cell line H929; type: cell-based; conditions: 0.01 nM to 1000 nM, assessed at 24 hrs
# Method: The multiple myeloma cell line, H929, was cultured and treated with CC-885 or other CMA analogs at various concentrations from 0.01 nM to 1000 nM. Apoptosis was assessed at 24 hrs. later.
smiles,measurement,setting,value
Nc1cccc2c1C(=O)N(C1CCC(=O)NC1=O)C2=O (stereo not shown) [pomalidomide],sensitivity to antiproliferative effect,[1]; DF15R re-expressing CRBN^E377V,unable to rescue sensitivity
same,antiproliferative effect,[1]; DF15R re-expressing CRBN^WT,regained antiproliferative effect
same,competition for CRBN binding to thalidomide analog-beads,[2],competed for binding to the beads
same,IL-2 inducing effects,[3],resistant
same,anti-proliferative effects,[4],reduced anti-proliferative effects
same,competition for CRBN^E377V binding to thalidomide analog-beads,[5],competed
"Cc1nc2cccc(N)c2c(=O)n1C1CCC(=O)NC1=O (stereo not shown) [Compound A, 3-(5-amino-2-methyl-4-oxo-4H-quinazolin-3-yl)-piperidine-2,6-dione]",anti-proliferative effects on co-treatment with lenalidomide,[6],blocks anti-proliferative effects
O=C1CCC(N2C(=O)c3ccccc3C2=O)C(=O)N1 (racemic) [thalidomide],competition for CRBN binding to thalidomide analog-beads,[2],competed for binding to the beads
same,teratogenic effects,[7],insensitive
same,auto-ubiquitination of CRBN,[8],able to inhibit
same,competition for CRBN^E377V binding to thalidomide analog-beads,[5],competed
"Cc1ccc(NC(=O)NCc2ccc3c(c2)CN(C2CCC(=O)NC2=O)C3=O)cc1Cl (stereo not shown) [CC-885, 1-(3-chloro-4-methylphenyl)-3-((2-(2,6-dioxopiperidin-3-yl)-1-oxoisoindolin-5-yl)methyl)urea]","growth inhibition, dependence on CRBN",[9],CRBN is required
same,"pro-apoptotic activity, dependence on CRBN",[9],CRBN is required
same,binding to CRBN protein,[10],binds
same,anti-proliferative effects on co-treatment with lenalidomide,[6],blocks anti-proliferative effects
same,potency across tumor cell line panel,"[11]; B-lymphoma, breast, CNS, colon, kidney, leukemia, lung, melanoma, multiple myeloma, ovary and prostate",potent
same,Therapeutic Index,[11]; toxic effects at low doses,low
same,anti-proliferative activity after re-expression of human CRBN,[12]; DF15R-hCRBNWT,recues CC-885 anti-proliferative activity
same,"anti-proliferative activity, dependence on CRBN",[12]; DF15 vs DF15R (CRBNnull),CRBN is required
same,early apoptosis,[13],induced early apoptosis
"Nc1cccc2c1CN(C1CCC(=O)NC1=O)C2=O (stereo not shown) [lenalidomide, 3-(4-amino-1-oxo-1,3-dihydro-isoindol-2-yl)-piperidine-2,6-dione]",competition for CRBN,[6]; against Compound A and CC-885,competes
same,teratogenic effects,[7],insensitive
